Assay results taken from patent US11993570B2, “Cationic lipids” (TAKEDA PHARMACEUTICAL COMPANY LIMITED, priority 2017, dated 2024).

Key:
[1] = system: HCT116 cells; assay: Test of mRNA transfection into cultured cells (luciferase expression); assay type: cell-based, human; details: HCT116, 10 ng luciferase mRNA per well, 24 hours after addition
Description: (§1) A lipid mixture (cationic lipid produced in Examples:DPPC:cholesterol:GM-020=60:10.6:28:1.4, in mole ratio) was dissolved in 90% EtOH/10% RNase-free water to afford a 8.5 mg/mL lipid solution. Luciferase mRNA (TriLink Bio Technologies) was dissolved in 10 mM 2-morpholinoethanesulfonate (MES) buffer at pH 4.0 to afford a 0.22 mg/mL nucleic acid solution. The lipid solution and nucleic acid solution obtained were mixed by using the apparatus NanoAssemblr (Precision Nanosystems) at room temperature with a flow rate ratio of 3 mL/min:6 mL/min to afford a dispersion containing a lipid particle encapsulating the nucleic acid. By using a Slyde-A-Lyzer (molecular weight cutoff: 20k, Thermo Fisher Scientific), the dispersion obtained was dialyzed with water at room temperature for 1 hour and with PBS at 4° C. for 48 hours. Subsequently, filtration was performed with a 0.2 µm syringe filter (IWAKI CO., LTD.) to prepare a composition for nucleic acid introduction, and thereafter the composition was stored at 4° C. The particle size of the lipid particle was measured by using a Zetasizer Nano ZS (Malvern Instruments Limited). The mRNA concentration and encapsulation ratio of the lipid particle were measured by using a Quant-iT™ RiboGreen® (Invitrogen).
The human colorectal cancer-derived cell line HCT116 cells were cultured in a 96-well plate at a cell density of 6000 cells/well, and 24 hours thereafter 10 μL of the composition containing 10 ng of luciferase mRNA for nucleic acid introduction (a solution obtained by diluting the product of Production Example 1 to an mRNA concentration of 10 ng/10 μL) was added to the medium. The level of luciferase expressed in HCT116 24 hours after the addition of mRNA was measured by using a Picagene LT2.0 kit (TOYOBO CO., LTD.).

[2] = Analysis of luciferase mRNA lipid particle composition (Production Example 1); assay type: physicochemical; details: for Particle size: lipid particle cationic lipid:DPPC:cholesterol:GM-020=60:10.6:28:1.4 with luciferase mRNA, Zetasizer Nano ZS; for Encapsulation ratio / mRNA Concentration: lipid particle composition with luciferase mRNA, RiboGreen
From the text: (§2) The particle size of the lipid particle (in the composition) can be measured by using a known means. For example, a Zetasizer Nano ZS (Malvern Instruments Limited), a particle size analyzer based on an NIBS (non-invasive backscatter) technique, can be used to calculate the particle size as a z-average particle size through cumulant analysis of the autocorrelation function. The particle size (average particle size) of the lipid particle (in the composition) is preferably 10 to 200 nm.
(§3) The concentration and encapsulation ratio of a nucleic acid (e.g., an siRNA, an mRNA) as an active ingredient in the composition of the present invention can be measured by using a known means. For example, after the nucleic acid is fluorescence-labeled with Quant-iT™ RiboGreen® (Invitrogen), the concentration and the encapsulation ratio can be determined by measuring the fluorescence intensity. The concentration of the nucleic acid in the composition can be calculated by using a standard curve prepared from aqueous solutions of the nucleic acid with known concentrations, and the encapsulation ratio can be calculated on the basis of difference in fluorescence intensity depending on the presence or absence of addition of Triton-X100 (a surfactant to disintegrate the lipid particle). The concentration of the nucleic acid in the composition refers to the total concentration of molecules of the nucleic acid encapsulated in the lipid particle and molecules of the nucleic acid not encapsulated in the lipid particle, and the encapsulation ratio refers to the fraction of molecules of the nucleic acid encapsulated in the lipid particle to all the molecules of the nucleic acid in the composition.
as §1

[3] = Analysis of Col1a1/FVII siRNA lipid particle composition (Production Example 2); assay type: physicochemical; details: for Particle size: lipid particle cationic lipid:DPPC:cholesterol:GM-020=60:10.6:28:1.4 with Col1a1 and FVII siRNA, Zetasizer Nano ZS; for Encapsulation ratio / siRNA Concentration: lipid particle composition with Col1a1 and FVII siRNA, RiboGreen
From the text: as §2, §3
A lipid mixture (cationic lipid produced in Examples:DPPC:cholesterol:GM-020=60:10.6:28:1.4, in mole ratio) was dissolved in 90% EtOH/10% RNase-free water to afford an approximately 7 mg/mL lipid solution. Equal amounts of an siRNA for Col1a1 and an siRNA for Factor VII (FVII) were mixed together, and the mixture was dissolved in 25 mM acetate buffer at pH 4.0 to afford a 0.2 mg/mL nucleic acid solution. Sequence information on the siRNAs are shown in a table below. The lipid solution and nucleic acid solution obtained were mixed by using the apparatus NanoAssemblr (Precision Nanosystems) at room temperature with a flow rate ratio of 3 mL/min:9 mL/min to afford a dispersion containing a lipid particle including the nucleic acids. By using a Slyde-A-Lyzer (molecular weight cutoff: 20k, Thermo Fisher Scientific), the dispersion obtained was dialyzed with water at room temperature for 1 hour and with PBS at 4° C. for 48 hours. Subsequently, filtration was performed with a 0.2 µm syringe filter (IWAKI CO., LTD.) to prepare a composition for nucleic acid introduction, and thereafter the composition was stored at 4° C. The particle size of the lipid particle was measured by using a Zetasizer Nano ZS (Malvern Instruments Limited). The mRNA concentration and encapsulation ratio of the lipid particle were measured by using a Quant-iT™ RiboGreen® (Invitrogen).

| Structure (SMILES) | Particle size [2] [nm] | Encapsulation ratio [2] [%] | mRNA Concentration [2] [µg/mL] | Particle size [3] [nm] | Encapsulation ratio [3] [%] | siRNA Concentration [3] [µg/mL] | Mean value of luminescence for 3 wells ([1]; Table 3 (PBS control 560)) [cps] | Mean value of luminescence for 3 wells ([1]; Table 4 (PBS control 627)) [cps] |
| --- | --- | --- | --- | --- | --- | --- | --- | --- |
| CCCC/C=C\CCCCCCCC(=O)OCC(COC(=O)CCCCCCC/C=C\CCCC)(COC(=O)CCCCCCC/C=C\CCCCCCCC)COC(=O)CCCCN(C)C [Example 6, 3-((5-(dimethylamino)pentanoyl)oxy)-2,2-bis(((9Z)-tetradec-9-enoyloxy)methyl)propyl (9Z)-octadec-9-enoate] | – | – | – | 87 | 98 | 333 | – | – |
| CCCC/C=C\CCCCCCCC(=O)OCC(COC(=O)CCCCCCC)(COC(=O)CCCCCCC/C=C\CCCC)COC(=O)CCN(C)C [Example 8, 2-(((N,N-dimethyl-β-alanyl)oxy]methyl}-2-[(octanoyloxy)methyl)propane-1,3-diyl (9Z,9′Z)bis-tetradec-9-enoate] | 67 | 94 | 84 | – | – | – | 3853 | – |
| CCCC/C=C\CCCCCCCC(=O)OCC(COC(=O)CCCCCCC)(COC(=O)CCCCCCC/C=C\CCCC)COC(=O)CCCN(C)C [Example 9, 2-(((4-(dimethylamino)butanoyl)oxy)methyl)-2-((octanoyloxy)methyl)propane-1,3-diyl (9Z,9′Z)bis-tetradec-9-enoate] | 108 | 62 | 129 | – | – | – | – | 549893 |
| CCCC/C=C\CCCCCCCC(=O)OCC(COC(=O)CCCCCCC/C=C\CCCC)(COC(=O)CCCCCCCCC)COC(=O)CCCN(C)C [Example 10, 2-((decanoyloxy)methyl)-2-(((4-(dimethylamino)butanoyl)oxy)methyl)propane-1,3-diyl (9Z,9′Z)bis-tetradec-9-enoate] | 92 | 84 | 86 | 88 | 90 | 307 | 1203467 | – |
| CCCC/C=C\CCCCCCCC(=O)OCC(COC(=O)CCCCCCC/C=C\CCCC)(COC(=O)CCCCCCCCCCC)COC(=O)CCCN(C)C [Example 11, 2-(((4-(Dimethylamino)butanoyl)oxy)methyl)-2-((dodecanoyloxy)methyl)propane-1,3-diyl (9Z,9′Z)bis-tetradec-9-enoate] | 83 | 92 | 85 | 85 | 91 | 402 | 953520 | – |

More lines, main results first:

| Particle size [2] [nm] | Encapsulation ratio [2] [%] | mRNA Concentration [2] [µg/mL] | Particle size [3] [nm] | Encapsulation ratio [3] [%] | siRNA Concentration [3] [µg/mL] | Structure (SMILES) | Mean value of luminescence for 3 wells ([1]; Table 3 (PBS control 560)) [cps] | Mean value of luminescence for 3 wells ([1]; Table 4 (PBS control 627)) [cps] |
| --- | --- | --- | --- | --- | --- | --- | --- | --- |
| 71 | 96 | 136 | – | – | – | CCCC/C=C\CCCCCCCC(=O)OCC(COC(=O)CCCCCCC/C=C\CCCC)(COC(=O)CCCCCCC/C=C\CCCC)COC(=O)CCCN(C)C [Example 1, 3-((4-(Dimethylamino)butanoyl)oxy)-2,2-bis(((9Z)-tetradec-9-enoyloxy)methyl)propyl (9Z)-tetradec-9-enoate] | 227720 | – |
| 90 | 96 | 73 | 104 | 98 | 251 | CCCC/C=C\CCCCCCCC(=O)OCC(COC(=O)CCCCCCC/C=C\CCCC)(COC(=O)CCCCCCC/C=C\CCCC)COC(=O)CCCCN(C)C [Example 2, 3-((5-(dimethylamino)pentanoyl)oxy)-2,2-bis(((9Z)-tetradec-9-enoyloxy)methyl)propyl (9Z)-tetradec-9-enoate] | 570027 | – |
| 93 | 96 | 87 | 117 | 95 | 196 | CCCC/C=C\CCCCCCCC(=O)OCC(COC(=O)CCCCCCC/C=C\CCCC)(COC(=O)CCCCCCC/C=C\CCCC)COC(=O)CCCCCN(C)C [Example 3, 3-((6-(dimethylamino)hexanoyl)oxy)-2,2-bis(((9Z)-tetradec-9-enoyloxy)methyl)propyl (9Z)-tetradec-9-enoate] | 412187 | – |
| 76 | 97 | 113 | 90 | 89 | 355 | CCCC/C=C\CCCCCCCC(=O)OCC(COC(=O)CCCCCCC/C=C\CCCC)(COC(=O)CCCCCCC/C=C\CCCCCC)COC(=O)CCCN(C)C [Example 4, 3-((4-(Dimethylamino)butanoyl)oxy)-2,2-bis(((9Z)-tetradec-9-enoyloxy)methyl)propyl (9Z)-hexadec-9-enoate] | 407547 | – |
| 91 | 98 | 96 | 103 | 94 | 367 | CCCC/C=C\CCCCCCCC(=O)OCC(COC(=O)CCCCCCC/C=C\CCCC)(COC(=O)CCCCCCC/C=C\CCCCCC)COC(=O)CCCCN(C)C [Example 5, 3-((5-(dimethylamino)pentanoyl)oxy)-2,2-bis(((9Z)-tetradec-9-enoyloxy)methyl)propyl (9Z)-hexadec-9-enoate] | 545507 | – |
| – | – | – | 102 | 96 | 320 | CCCC/C=C\CCCCCCCC(=O)OCC(COC(=O)CCCCCCC/C=C\C/C=C\CCCCC)(COC(=O)CCCCCCC/C=C\CCCC)COC(=O)CCCCN(C)C [Example 7, 3-((5-(dimethylamino)pentanoyl)oxy)-2,2-bis(((9Z)-tetradec-9-enoyloxy)methyl)propyl (9Z,12Z)-octadec-9,12-dienoate] | – | – |
